This is an account of results in ChEMBL document CHEMBL1165922, “Vitamin D receptor agonist/histone deacetylase inhibitor molecular hybrids” (Bioorg Med Chem, 2010).

Common to all, as to format: organism-based
What all share (details): in vivo, other

Data set [1] has as its system Mus musculus. Nature of the data set: Toxicity in FVB mouse assessed as calcium level in blood at 24 pmol/day administered via osmotic pump for 6 to 7 days measured on day 6 by microchemistry (RVb = 2 mmol/L).
Data set [2] has as its system Mus musculus. Nature of the data set: Toxicity in FVB mouse assessed as calcium level in blood at 24 pmol/day administered via osmotic pump for 6 to 7 days measured on day 4 by microchemistry (RVb = 2.11 mmol/L).
For data set [3], the system named is Mus musculus. In words: Toxicity in FVB mouse assessed as calcium level in blood at 24 pmol/day administered via osmotic pump for 6 to 7 days measured on day 3 by microchemistry (RVb = 2.24 mmol/L).
Data set [4] has as its system Mus musculus. Nature of the data set: Toxicity in FVB mouse assessed as calcium level in blood at 12 pmol/day administered via osmotic pump for 6 to 7 days measured on day 7 by microchemistry (RVb = […] mmol/L).
Data set [5] has as its system Mus musculus. Nature of the data set: Toxicity in FVB mouse assessed as calcium level in blood at 12 pmol/day administered via osmotic pump for 6 to 7 days measured on day 3 by microchemistry (RVb = 2.24 mmol/L).
Data set [6] relates to Mus musculus. Nature of the data set: Toxicity in FVB mouse assessed as calcium level in blood at 24 pmol/day administered via osmotic pump for 6 to 7 days measured on day 7 by microchemistry (RVb = […] mmol/L).
Data set [7] concerns Mus musculus. In words: Toxicity in FVB mouse assessed as calcium level in blood at 48 pmol/day administered via osmotic pump for 6 to 7 days measured on day 6 by microchemistry (RVb = 2 mmol/L).
Data set [8] relates to Mus musculus. Nature of the data set: Toxicity in FVB mouse assessed as calcium level in blood at 12 pmol/day administered via osmotic pump for 6 to 7 days measured on day 6 by microchemistry (RVb = 2 mmol/L).
Data set [9] has as its system Mus musculus. In words: Toxicity in FVB mouse assessed as calcium level in blood at 12 pmol/day administered via osmotic pump for 6 to 7 days measured on day 4 by microchemistry (RVb = 2.11 mmol/L).
Data set [10] has as its system Mus musculus. Nature of the data set: Toxicity in FVB mouse assessed as calcium level in blood at 48 pmol/day administered via osmotic pump for 6 to 7 days measured on day 3 by microchemistry (RVb = 2.24 mmol/L).

Consider `C=C1/C(=C\C=C2/CCC[C@]3(C)[C@@H]([C@H](C)CCCC(C)(C)O)CC[C@@H]23)C[C@@H](O)C[C@@H]1O` [CALCITRIOL], for which the Activity with Mus musculus [1] came out at 4.43 mmol/L; in the data set with Mus musculus [2] it was 2.97 mmol/L; in the data set on Mus musculus [3], 3.15 mmol/L; in the data set with Mus musculus [4], 2.62 mmol/L; in the data set with Mus musculus [5], 2.05 mmol/L; with Mus musculus [6] it was 3.21 mmol/L. Moreover, the Activity result in the data set on Mus musculus [7] is reported as “Toxic”; in the data set with Mus musculus [8] it was 2.03 mmol/L; with Mus musculus [9] it was 2.59 mmol/L; with Mus musculus [10] it was 3.07 mmol/L.
